This note sets out measurements from ChEMBL document CHEMBL5223175, “Discovery of novel 2-oximino-2-indolylacetamide derivatives as potent anticancer agents capable of inducing cell autophagy and ferroptosis” (Bioorg Med Chem, 2023).

The subject of data set [1] is 5-8F. As to the kind of experiment: Antiproliferative activity against human 5-8F cells assessed as cell viability at 80 uM incubated for 72 hrs by CCK-8 assay. Format: functional. The conditions noted are these: read-out: Activity. On the technique in general: Tetrazolium assays rely on reduction of a dye to a coloured formazan, in cell work by metabolically active cells.

In another data set the test system is SK-HEP1. As to the kind of experiment: Antiproliferative activity against human SK-HEP1 cells assessed as cell viability at 80 uM incubated for 72 hrs by CCK-8 assay. Format: functional. Conditions: read-out: Activity.
Another data set concerns HeLa. Put plainly: Antiproliferative activity against human HeLa cells assessed as cell viability at 80 uM incubated for 72 hrs by CCK-8 assay. Format: functional. Conditions: read-out: Activity.
The test system of data set [2] is 5-8F. As to the kind of experiment: Antiproliferative activity against human 5-8F cells assessed as reduction in cell viability incubated for 72 hrs by CCK-8 assay. Format: functional, cell-based.
The subject of a further data set is CAL-27. As to the kind of experiment: Antiproliferative activity against human CAL-27 cells assessed as reduction in cell viability incubated for 72 hrs by CCK-8 assay. Format: functional, cell-based. The conditions noted are these: CAL-27, 72 h.
Data set [3] can be described thus: Antiproliferative activity against human NP69SV40T cells assessed as reduction in cell viability incubated for 72 hrs by CCK-8 assay. Type of data set: toxicity, cell-based.
Data set [4] in a line: Toxicity in BALB/c mouse xenografted with human 5-8F cells assessed as decrease in body weight at 2 mg/kg, ip administered every 2 days. Format: organism-based. Conditions: in vivo, 48 h, time 2 day.
The subject of the next data set is FaDu. Put plainly: Antiproliferative activity against human FaDu cells assessed as reduction in cell viability incubated for 72 hrs by CCK-8 assay. Type of data set: functional, cell-based.

Consider `Cn1cc(/C(=N/O)C(=O)Nc2ccc(Br)c(F)c2)c2ccccc21`, for which the viability at 80 µM in the data set with 5-8F [1] was determined as 75%; with SK-HEP1, 60.6%; in the data set with HeLa, 71.2%.
As to `Cc1ccccc1NC(=O)/C(=N/O)c1cn(C)c2ccccc12`, the results for the viability at 80 µM with 5-8F [1], with SK-HEP1 and in the data set on HeLa were 95.3%, 76.8% and 77.1%, respectively.
For the compound `Cn1cc(/C(=N\O)C(=O)Nc2ccc(Br)cc2)c2ccccc21`, the viability at 80 µM with 5-8F [1] is 22.1%; in the data set on SK-HEP1 it was 28.9%; in the data set with HeLa, 14.8%.
The corresponding values for `Cn1cc(/C(=N/O)C(=O)Nc2cccc(F)c2)c2ccccc21` are 73.1%, 68% and 61.2%.
On to `Cn1cc(/C(=N/O)C(=O)Nc2ccc(Cl)cc2)c2ccccc21`, for which the figures for the viability at 80 µM in the data set with 5-8F [1], in the data set with SK-HEP1 and with HeLa were 47.2%, 71.6% and 57.2%, respectively.
As a reminder, the IC50 is the midpoint of a concentration-inhibition curve. For `COc1cccc2c1C(=O)c1c(O)c3c(c(O)c1C2=O)C[C@@](O)(C(=O)CO)C[C@@H]3O[C@H]1C[C@H](N)[C@H](O)[C@H](C)O1` [DOXORUBICIN], the IC50 in the data set with 5-8F [2] worked out at 0.34 µM; in the data set on CAL-27, 0.18 µM; in the data set on FaDu, 0.16 µM. For the same compound, the IC50 at 72 h in data set [3] amounted to 0.11 µM. Further, the Activity entry in data set [4] is listed as “Toxic”.
`Cn1cc(/C(=N/O)C(=O)Nc2ccc(C(F)(F)F)cc2)c2ccccc21`: the figures for the viability at 80 µM with 5-8F [1], in the data set with SK-HEP1 and with HeLa were 45%, 51.5% and 25.7%, respectively.
Take `Cn1cc(/C(=N\O)C(=O)Nc2ccc(Br)c(F)c2)c2ccccc21`: the viability at 80 µM stood at 86.8% in the data set on 5-8F [1], 75.6% in the data set with SK-HEP1 and 56.7% with HeLa.
The corresponding values for `Cn1cc(/C(=N\O)C(=O)Nc2cccc(F)c2)c2ccccc21` are 59.3%, 40% and 53.2%.
`Cn1cc(/C(=N/O)C(=O)Nc2cccc(Cl)c2)c2ccccc21`: the values for the viability at 80 µM in the data set on 5-8F [1], in the data set on SK-HEP1 and with HeLa were 78%, 64.6% and 64.6%, respectively.
On to `Cn1cc(/C(=N\O)C(=O)Nc2ccc(C(F)(F)F)cc2)c2ccccc21`, for which the values for the viability at 80 µM with 5-8F [1], with SK-HEP1 and in the data set with HeLa were 10.2%, 15% and 15.8%, respectively.
On to `Cn1cc(/C(=N\O)C(=O)Nc2cccc(Cl)c2)c2ccccc21`, for which the viability at 80 µM with 5-8F [1] was 12.7%; with SK-HEP1, 31.4%; with HeLa, 14%.
In the same order, the values of `Cc1ccccc1NC(=O)/C(=N\O)c1cn(C)c2ccccc12` are 92.8%, 77.6% and 86.3%.
Consider `Cn1cc(/C(=N/O)C(=O)Nc2ccc(Br)cc2)c2ccccc21`, for which the viability at 80 µM with 5-8F [1] worked out at 31.5%; in the data set with SK-HEP1, 29.1%; in the data set with HeLa, 18.4%.
